The values below come from patent US6797698B1, “Method of treating prolonged critical illness and other conditions having a similar neuroendocrine pattern” (K.U. Leuven Research & Development, priority 1998, dated 2004).

In assay [1] the test system is GH secretion and GH-dependent parameters. The experiment in a line: 21 h (21-45 h) infusion in protracted critical illness: GH secretion and GH-dependent parameters. It counts as in vivo, human. The procedure:
The inventors have also shown that infusion of GHRP-2 for 21 h in this condition increases pulsatile GH secretion >6-fold, associated with increases in IGF-I, IGFBP-3 and ALS. […] This observation strongly favors the presence of active feedback inhibition preventing overcorrection of the somatotropic axis with this strategy. Treatment with high doses of recombinant human GH has recently shown to increase morbidity and mortality of critical illness. The inability to overtreat with GH-secretagogues is an important advantage over exogenous GH, especially in the vulnerable critically ill elderly.

The test system of assay [2] is TSH secretion and thyroid hormone levels. The experiment in a line: 21 h (21-45 h) infusion in protracted critical illness: TSH secretion and thyroid hormones. In kind it is in vivo, human. As to conditions: 21 h infusion.
A further assay has as its system catabolism. The assay can be described thus: LHRH effect on catabolism resulting from testosterone deficiency. The following applies: in vivo. From the text: Optionally the administration of GHRP and TRH can be supplemented with Luteinizing Hormone Releasing Hormone (LHRH). A shortage of pulsatile LH secretion can lead to testosterone deficiency in males, which in turn can cause an increase in catabolism.

As for GHRP-2, in assay [1] (infusion for 21 h), the “ALS (in words)” value was “increases”, the “IGF-I (in words)” value is listed as “increases”, the “IGFBP-3 (in words)” value was “increases” and the “increase in pulsatile GH secretion” value was greater than 6 fold.
In the case of `NC(=O)[C@@H]1CCCN1C(=O)[C@H](Cc1cnc[nH]1)NC(=O)[C@@H]1CCC(=O)N1` [TRH, Thyroid Releasing Hormone], in assay [1] (21 h infusion), the “GH-dependent parameters (in words)” value is “did not alter”. Moreover, in assay [2], the “TSH secretion (in words)” value is on record as “increasing” and the “thyroid hormone levels (in words)” value was “increasing”.
With “Luteinizing Hormone Releasing Hormone (QHWSYGLRPG; Gonadoliberin-1; UniProt P01148 24-33, looked up) [LHRH, Luteinizing Hormone Releasing Hormone, optional supplement to GHRP and TRH]”, the “effect on catabolism that results from testosterone deficiency (in words)” value with catabolism is given as “no effect”.
